From patent US20160166581A1 (priority 2014, published 2016)
Values joined by “and” are separate entries in the source; they are usually repeats but may differ in a detail not shown here. Equal entries are not always repeated.

How the values were obtained:
[1] = system: horses with black walnut extract induced laminitis; test: Black walnut extract induced laminitis, treatment with donepezil; assay type: in vivo, horse
Protocol: Three domestic horses, average age 26, are corralled in close proximity to a Black Walnut tree with exposed roots and debris from black walnuts shells, including leaves. The weight of the horses is 1100-1200 lbs. Horses are quartered in a 24×36 square foot area with a Black Walnut tree within the confined area.
The horses are evaluated continuously after 6 hours of exposure to remove them from exposure to the black walnut extract once symptoms occur.
Subsequent doses are 50 mg on Day #3-7. Horses are given Timothy hay and water, but no other medicinal or mechanical interventions.
The same 3 horses are used in similar exposure design, as in the original experiment to induce laminitis. […] The dose is tapered to 50 mg orally on Days #3 through #7.

[2] = system: obese domestic cats with diabetes
Protocol: Five obese domestic cats with diabetes (average weight 14.2 lbs.) are on glargine insulin for glycemic control. […] All cats are being treated with glargine insulin in bid dosing schedule. […] Over a 14 day period morning blood glucose levels (prior to feeding) are recorded.

feline diabetic subjects = test: Glucose Tolerance Test/Felines (ipGTT); assay type: in vivo, cat
Protocol: Glucose Tolerance Test/Felines. Four feline diabetic subjects (male, age 5-7 years) with newly diagnosed DM (diabetes). […] These 4 cats are subjected to intraperitoneal injection of 2 grams/kg glucose. (ipGTT). Blood glucose levels are obtained via Cephalic iv. catheter at 30 and 60 minutes.

[3] = system: cats with stage 3 and 4 renal disease; test: Feline renal disease, serum creatinine pre and post treatment; assay type: in vivo, cat; parameters: Serum creatinine post treatment: unit not given here
Text: This example measures feline renal disease. […] The average weight of the domestic cats was approximately 6 lbs.

[4] = after repeat exposure and treatment
[5] = first exposure, 3 horses, 100 mg orally Day 1-2, 50 mg Day 3-7
[6] = repeat exposure, same 3 horses, 100 mg Day 1-2, 50 mg Days 3-7
[7] = 4 cats, 1.25 mg daily for 4 weeks
[8] = individual cats #1-#4, donepezil 1.25 mg daily for 4 weeks
[9] = individual cats #1-#4, donepezil 1.25 mg daily for 4 weeks, 2 gm/kg glucose ip

COc1cc2c(cc1OC)C(=O)C(CC1CCN(Cc3ccccc3)CC1)C2 (centres unmarked) [donepezil]
Gait (horse movements) [1, 4]: no abnormalities | Lasting lameness or constitutional symptoms [1, 4]: No observable lasting lameness or constitutional symptoms | Systemic symptoms after day #7 ([1]; first exposure, 3 horses): No systemic symptoms are noted | All subjects appear normal by [1, 5]: ≤ 7 days | Normal activity noted as early as [1, 5]: 5 days | Warmth, posturing and trembling resolved by [1, 5]: ≤ 3 days | Resolution of symptoms and normal movements completed by [1, 6]: ≤ 7 days | Resolution of symptoms and normal movements observed at [1, 6]: 5 days | Dose of glargine insulin decreased to ([2]; #2 Cat, from 3 u. bid, secondary to low morning blood glucose): 2 units | Morning blood glucose levels (prior to feeding) during treatment ([2]; individual diabetic cats #1-#5 on glargine insulin, 1.25 mg donepezil orally daily, 14 day period): 88 to 113 mg/dL and 105 to 128 mg/dL and 96 to 117 mg/dL | 30 minutes blood glucose levels on average less than before treatment (feline diabetic subjects; [7]): approximately 24% | 60 minute GTT on average less than without treatment (feline diabetic subjects; [7]): 42% | Glucose tolerance (in words) (feline diabetic subjects; 4 weeks prior to ipGTT testing, versus same subjects before treatment): improved glucose tolerance | Decrease of 30 minute ipGTT blood glucose versus before treatment (feline diabetic subjects; [8]): 29% and 22% (2×) and 25% | Decrease of 60 minute ipGTT blood glucose versus before treatment (feline diabetic subjects; [8]): 42% and 39% and 41% and 46% | Blood glucose at 30 minutes in ipGTT (feline diabetic subjects; [9]): 269 mg/dL and 292 mg/dL and 278 mg/dL and 304 mg/dL | Blood glucose at 60 minutes in ipGTT (feline diabetic subjects; [9]): 152 mg/dL and 164 mg/dL and 145 mg/dL and 147 mg/dL | Improvement of creatinine in six cats ([3]; donepezil 2.5 mg daily over 4 week period): approximately 56% | Serum creatinine post treatment ([3]; individual cats 1-6, stage 3 or 4 renal disease, donepezil 2.5 mg daily for 4 weeks): 1.8 and 2.6 and 2.0 and 1.9 and 2.5 and 2.3 | Decrease of serum creatinine post versus pre treatment ([3]; individual cats 1-6, donepezil 2.5 mg daily for 4 weeks): 49% and 53% and 45% and 60% and 65% and 62%
